Assays:
[1] = biological target: T1, ATP-dependent translocase ABCB1 (Homo sapiens, UniProt P08183); assay: TP_TRANSPORTER: inhibition of Digoxin transepithelial transport (basal to apical) (Digoxin: 5 uM, Albendazole: 100 uM) in MDR1-expressing LLC-PK1 cells; type: functional, cell-based; conditions: pig, llc-pk1, 100 µM
[2] = biological target: T1, ATP-dependent translocase ABCB1; assay: TP_TRANSPORTER: transepithelial transport (basal to apical) in MDR1-expressing LLC-PK1 cells; type: functional, cell-based; conditions: pig
[3] = biological target: P-glycoprotein 1 and 3 (MDR1a/MDR1b) (Mus musculus, UniProt P21447+P06795); assay: TP_TRANSPORTER: tissue distribution in mdr1a/1b(-/-) mouse; type: functional, organism-based; conditions: in vivo

T1 sequence (P08183 whole entry): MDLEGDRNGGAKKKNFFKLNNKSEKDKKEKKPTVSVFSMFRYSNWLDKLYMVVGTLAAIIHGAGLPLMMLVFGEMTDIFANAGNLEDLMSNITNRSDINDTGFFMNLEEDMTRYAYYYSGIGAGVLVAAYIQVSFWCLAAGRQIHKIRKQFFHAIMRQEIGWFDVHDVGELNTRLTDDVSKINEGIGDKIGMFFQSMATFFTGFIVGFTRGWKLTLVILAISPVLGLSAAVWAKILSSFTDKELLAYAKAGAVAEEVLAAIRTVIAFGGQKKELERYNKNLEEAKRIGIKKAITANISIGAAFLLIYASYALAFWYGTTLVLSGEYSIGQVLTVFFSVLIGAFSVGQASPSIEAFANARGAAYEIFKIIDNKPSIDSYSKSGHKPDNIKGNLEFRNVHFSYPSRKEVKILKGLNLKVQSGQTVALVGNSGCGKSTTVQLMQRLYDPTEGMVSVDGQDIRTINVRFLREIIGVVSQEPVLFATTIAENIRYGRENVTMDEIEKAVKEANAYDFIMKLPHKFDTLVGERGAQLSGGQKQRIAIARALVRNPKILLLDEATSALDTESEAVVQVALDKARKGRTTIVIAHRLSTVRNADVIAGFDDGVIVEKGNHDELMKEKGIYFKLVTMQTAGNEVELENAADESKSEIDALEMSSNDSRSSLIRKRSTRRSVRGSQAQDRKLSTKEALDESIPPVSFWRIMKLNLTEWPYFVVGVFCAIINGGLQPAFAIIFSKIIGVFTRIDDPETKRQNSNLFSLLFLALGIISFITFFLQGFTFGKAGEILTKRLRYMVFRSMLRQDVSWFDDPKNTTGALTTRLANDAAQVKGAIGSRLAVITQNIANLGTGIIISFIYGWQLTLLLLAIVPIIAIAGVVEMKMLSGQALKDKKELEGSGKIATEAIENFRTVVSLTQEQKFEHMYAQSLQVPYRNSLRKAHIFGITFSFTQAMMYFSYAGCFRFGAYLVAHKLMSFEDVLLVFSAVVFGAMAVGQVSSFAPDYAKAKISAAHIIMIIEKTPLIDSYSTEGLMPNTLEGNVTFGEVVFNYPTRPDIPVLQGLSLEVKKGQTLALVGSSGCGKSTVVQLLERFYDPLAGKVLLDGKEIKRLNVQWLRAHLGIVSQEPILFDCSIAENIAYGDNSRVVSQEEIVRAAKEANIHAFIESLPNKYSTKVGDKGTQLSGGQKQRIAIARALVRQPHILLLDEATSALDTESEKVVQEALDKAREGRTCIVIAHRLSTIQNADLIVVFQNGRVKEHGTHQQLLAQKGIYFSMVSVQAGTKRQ

`CCCSc1ccc2nc(NC(=O)OC)[nH]c2c1` [ALBENDAZOLE] was tested, and the Activity [1] was “is not an inhibitor [-]”, the Activity [2] was “is not a substrate [-]” and the Activity [3] was “is not a substrate [-]”.

— ChEMBL document CHEMBL2073953, “The anthelminthic agent albendazole does not interact with p-glycoprotein” (Drug Metab Dispos, 2002)
